According to PMC10140010 (Investigational New Drugs, 2023):
“And” between values parts separate entries of the source, which are not always exact repeats. Identical values can stand only once.

Assays:
INSR = INSR (Homo sapiens, UniProt P06213); assay: Z'-LYTE kinase selectivity; assay type: biochemical
DYRK3 = DYRK3 (Homo sapiens, UniProt O43781); assay: Z'-LYTE kinase selectivity; assay type: biochemical
CaMK2 alpha = CaMK2 alpha (Homo sapiens, UniProt Q9UQM7); assay: Z'-LYTE kinase selectivity; assay type: biochemical
SRC = SRC (Homo sapiens, UniProt P12931); assay: Z'-LYTE kinase selectivity; assay type: biochemical
Chain of SRC (P12931 whole entry): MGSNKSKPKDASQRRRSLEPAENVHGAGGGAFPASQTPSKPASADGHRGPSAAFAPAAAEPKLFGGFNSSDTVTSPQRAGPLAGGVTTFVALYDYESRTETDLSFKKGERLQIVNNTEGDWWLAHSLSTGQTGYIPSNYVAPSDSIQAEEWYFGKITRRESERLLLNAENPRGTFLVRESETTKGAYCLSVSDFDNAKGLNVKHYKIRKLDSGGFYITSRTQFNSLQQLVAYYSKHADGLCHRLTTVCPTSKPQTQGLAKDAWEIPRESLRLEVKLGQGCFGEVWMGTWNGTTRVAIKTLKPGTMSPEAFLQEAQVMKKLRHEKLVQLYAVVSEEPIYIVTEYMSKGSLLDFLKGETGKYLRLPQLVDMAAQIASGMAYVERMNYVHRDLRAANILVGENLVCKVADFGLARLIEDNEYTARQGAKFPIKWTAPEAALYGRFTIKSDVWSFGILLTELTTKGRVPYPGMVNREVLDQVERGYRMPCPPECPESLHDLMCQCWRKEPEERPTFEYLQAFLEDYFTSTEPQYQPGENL

EPHA2 = EPHA2 (Homo sapiens, UniProt P29317); assay: Z'-LYTE kinase selectivity; assay type: biochemical
CHK1 = CHK1 (Homo sapiens, UniProt O14757); assay: Z'-LYTE kinase selectivity; assay type: biochemical
MAP4K4 = MAP4K4 (Homo sapiens, UniProt O95819); assay: Z'-LYTE kinase selectivity; assay type: biochemical
Chain of MAP4K4 (O95819 whole entry): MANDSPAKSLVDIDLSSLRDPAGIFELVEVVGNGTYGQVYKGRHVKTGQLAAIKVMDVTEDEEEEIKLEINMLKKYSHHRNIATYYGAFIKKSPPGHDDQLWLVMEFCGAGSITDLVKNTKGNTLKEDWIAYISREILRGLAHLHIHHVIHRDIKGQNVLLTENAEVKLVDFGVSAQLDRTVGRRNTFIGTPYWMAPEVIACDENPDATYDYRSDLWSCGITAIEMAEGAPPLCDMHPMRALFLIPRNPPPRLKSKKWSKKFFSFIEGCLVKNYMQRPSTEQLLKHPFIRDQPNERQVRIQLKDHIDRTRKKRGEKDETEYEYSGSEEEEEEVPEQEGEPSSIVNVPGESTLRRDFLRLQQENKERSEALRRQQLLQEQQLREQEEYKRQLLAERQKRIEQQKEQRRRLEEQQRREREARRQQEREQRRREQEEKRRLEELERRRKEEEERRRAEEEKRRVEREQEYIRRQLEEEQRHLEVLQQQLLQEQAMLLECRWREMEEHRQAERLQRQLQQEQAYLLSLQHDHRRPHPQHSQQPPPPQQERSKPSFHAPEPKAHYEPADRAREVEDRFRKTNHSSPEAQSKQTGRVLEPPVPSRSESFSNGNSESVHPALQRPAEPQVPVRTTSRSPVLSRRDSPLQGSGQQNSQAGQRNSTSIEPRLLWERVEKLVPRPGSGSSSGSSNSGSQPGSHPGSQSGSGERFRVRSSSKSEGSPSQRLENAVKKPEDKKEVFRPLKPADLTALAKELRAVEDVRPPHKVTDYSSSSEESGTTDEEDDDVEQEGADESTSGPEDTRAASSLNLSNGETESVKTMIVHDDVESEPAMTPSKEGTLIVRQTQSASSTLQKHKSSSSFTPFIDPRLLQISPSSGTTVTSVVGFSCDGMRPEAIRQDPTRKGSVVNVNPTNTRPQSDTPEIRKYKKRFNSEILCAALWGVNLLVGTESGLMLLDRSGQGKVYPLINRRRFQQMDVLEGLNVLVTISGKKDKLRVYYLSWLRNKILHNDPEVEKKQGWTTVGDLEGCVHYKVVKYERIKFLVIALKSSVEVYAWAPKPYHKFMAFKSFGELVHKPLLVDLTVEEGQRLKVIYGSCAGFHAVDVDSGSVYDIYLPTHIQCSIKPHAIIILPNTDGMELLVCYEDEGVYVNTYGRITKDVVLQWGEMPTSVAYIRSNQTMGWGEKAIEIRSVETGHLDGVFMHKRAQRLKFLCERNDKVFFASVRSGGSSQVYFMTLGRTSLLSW

TNIK = TNIK (Homo sapiens, UniProt Q9UKE5); assay: Z'-LYTE kinase selectivity; assay type: biochemical
GSK3 beta = GSK3 beta (Homo sapiens, UniProt P49841); assay: Z'-LYTE kinase selectivity; assay type: biochemical
Chain of GSK3 beta (P49841 whole entry): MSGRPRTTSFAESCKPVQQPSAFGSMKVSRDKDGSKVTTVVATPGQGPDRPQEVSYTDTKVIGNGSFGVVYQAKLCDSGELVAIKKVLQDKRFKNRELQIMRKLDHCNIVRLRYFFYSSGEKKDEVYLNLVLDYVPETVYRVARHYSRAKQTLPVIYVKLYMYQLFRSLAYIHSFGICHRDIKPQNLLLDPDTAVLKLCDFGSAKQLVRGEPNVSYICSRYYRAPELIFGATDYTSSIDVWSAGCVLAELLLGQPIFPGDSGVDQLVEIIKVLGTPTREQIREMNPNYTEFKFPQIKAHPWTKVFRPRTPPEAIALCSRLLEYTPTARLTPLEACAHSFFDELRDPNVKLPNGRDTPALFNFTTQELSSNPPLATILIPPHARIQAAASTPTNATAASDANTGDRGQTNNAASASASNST

[1] = tested on: Ba/F3 (EML4-ALK^C1156Y) cells; assay: Cell proliferation (CellTiter-Glo); assay type: cell-based; settings: read-out: IC50 BaF3-EML4-ALK C1156Y
Method: (§1) Cell proliferation assay was performed using methods reported in the previous article. Cell proliferation was measured using the CellTiter-Glo® (CTG) Luminescent Cell Viability Assay (Promega, WI, USA). Cells were seeded in 96-well plates at 15,000 cells per well in detection medium containing 0.5% fetal bovine serum and placed in an incubator at 37℃ and 5% CO2 overnight. On the following day, iruplinalkib was serially diluted with DMSO, further diluted in assay medium, and added to the designated wells for serial dilution of iruplinalkib to the target gradient concentration.
(§2) Transfection was performed when cell confluent reached 70–90% in 12-well plates. Opti-MEM medium was used to dilute Lipofectamine 3000 reagent (ThermoFisher, MA, USA) and siRNA separately and mixed well. The mixture was added to the cells after incubation at room temperature for 15 min, then at 37℃ for 2–4 days.

[2] = tested on: Ba/F3 (EML4-ALK^WT) cells; assay: Cell proliferation (CellTiter-Glo); assay type: cell-based; settings: read-out: IC50 BaF3-EML4-ALK WT
Method: as §1, §2

LCK = LCK (Homo sapiens, UniProt P06239); assay: Z'-LYTE kinase selectivity; assay type: biochemical
Chain of LCK (P06239 whole entry): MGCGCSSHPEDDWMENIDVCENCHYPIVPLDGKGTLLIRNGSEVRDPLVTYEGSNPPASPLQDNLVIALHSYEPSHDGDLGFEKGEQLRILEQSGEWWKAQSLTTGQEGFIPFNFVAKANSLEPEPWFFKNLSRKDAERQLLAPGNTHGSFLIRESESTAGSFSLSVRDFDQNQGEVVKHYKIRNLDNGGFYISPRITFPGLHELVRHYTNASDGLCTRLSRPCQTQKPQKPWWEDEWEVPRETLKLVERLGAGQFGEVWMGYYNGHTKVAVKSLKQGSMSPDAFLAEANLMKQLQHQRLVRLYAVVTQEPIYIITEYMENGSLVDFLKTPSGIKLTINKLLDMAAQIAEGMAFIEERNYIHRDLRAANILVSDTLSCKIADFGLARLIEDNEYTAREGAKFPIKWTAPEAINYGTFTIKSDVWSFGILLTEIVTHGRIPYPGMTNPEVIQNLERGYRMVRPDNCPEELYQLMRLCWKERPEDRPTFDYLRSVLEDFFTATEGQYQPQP

[3] = tested on: NCI-H3122 (EML4-ALK) xenograft; assay: NCI-H3122 cell line-derived xenograft model (tumor volume, body weight); assay type: in vivo, BALB/c nude mice; settings: 5mg/kg PO QD×21; for Tumor volume, individual animals: in mm³
Method: Female BALB/c nude mice (4–6 weeks old) were provided by Shanghai Sipple-Bikai Laboratory Animal Co., Ltd. and Beijing Vital River Laboratory Animal Technology Co., Ltd. The mice were housed in a specific pathogen-free environment under a 12 h light/dark cycle, and had free access to sterile animal feed and water.
PDX and CDX models were used for in vivo studies. Patient-derived tumors tissues were divided into about 30 mm^3 and transplanted into the right dorsal subcutis. Treatment began when the tumor size reached to 200 mm^3. The mice were randomly assignied into the corresponding dosing groups (9 mice in each group). Drugs were deliverd via daily oral for 4 weeks. Tumor size was measured periodically using a digital caliper (Cal Pro, Sylvac, Switzerland), and tumor volume was calculated as 0.5 × length × width^2. For more detailed information, please refer to Supplementary materials. All procedures and protocols of xenograft models were approved by the Institutional Animal Care and Use Committee of WuXi AppTec.
NCI-H3122 cells were re-suspended with 0.9% sodium chloride, and then 6×10^6 cells in 100 μL was inoculated subcutaneously into the right armpit of nude mice to prepare solid tumor models under sterile conditions. […] Groups were gavaged once daily with the base dose of drug for 21 days. The blank control group was given the same volume of vehicle (sterile water) injection according to the same protocol, with the dose volume of 100 μL/10 g.

[4] = tested on: NCI-H1975 (EGFR^L858R/T790M) cells; assay: Cell proliferation (CellTiter-Glo); assay type: cell-based
Method: as §1

[5] = tested on: Karpas299 (NPM-ALK) cells; assay: Cell proliferation (CellTiter-Glo); assay type: cell-based
Method: as §1

[6] = tested on: NIH-3T3 (CD74-ROS1) cells; assay: Cell proliferation (CellTiter-Glo); assay type: cell-based
Method: as §1

[7] = tested on: HCC-78 (SLC34A2-ROS1) cells; assay: Cell proliferation (CellTiter-Glo); assay type: cell-based
Method: as §1

Ba/F3 cells = assay: Cell proliferation (CellTiter-Glo); assay type: cell-based; settings: read-out: IC50 BaF3
Method: as §1

[8] = tested on: Ba/F3 (SLC34A2-ROS1) cells; assay: Cell proliferation (CellTiter-Glo); assay type: cell-based; settings: read-out: IC50 BaF3 SLC34A2-ROS1
Method: as §1

KDR = KDR (Homo sapiens, UniProt P35968); assay: Z'-LYTE kinase selectivity; assay type: biochemical
PKA = PKA (Homo sapiens, UniProt P17612); assay: Z'-LYTE kinase selectivity; assay type: biochemical
TAOK2 = TAOK2 (Homo sapiens, UniProt Q9UL54); assay: Z'-LYTE kinase selectivity; assay type: biochemical
MST4 = MST4 (Homo sapiens, UniProt Q9P289); assay: Z'-LYTE kinase selectivity; assay type: biochemical
JAK2 = JAK2 (Homo sapiens, UniProt O60674); assay: Z'-LYTE kinase selectivity; assay type: biochemical
JNK1 = JNK1 (Homo sapiens, UniProt P45983); assay: Z'-LYTE kinase selectivity; assay type: biochemical
Chain of JNK1 (P45983 whole entry): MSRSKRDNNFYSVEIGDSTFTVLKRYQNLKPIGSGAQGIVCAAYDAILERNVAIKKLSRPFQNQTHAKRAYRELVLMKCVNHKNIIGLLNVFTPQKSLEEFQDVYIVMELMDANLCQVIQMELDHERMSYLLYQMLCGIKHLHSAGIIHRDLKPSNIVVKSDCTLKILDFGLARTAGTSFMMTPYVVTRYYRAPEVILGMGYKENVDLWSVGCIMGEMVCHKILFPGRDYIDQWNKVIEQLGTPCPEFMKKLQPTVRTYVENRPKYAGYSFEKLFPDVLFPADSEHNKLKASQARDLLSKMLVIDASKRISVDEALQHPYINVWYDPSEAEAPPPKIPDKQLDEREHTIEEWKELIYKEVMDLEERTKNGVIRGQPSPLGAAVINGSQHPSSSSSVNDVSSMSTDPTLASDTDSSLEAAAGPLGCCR

c-MET = c-MET (Homo sapiens, UniProt P08581); assay: Z'-LYTE kinase selectivity; assay type: biochemical

Chain of DYRK3 (O43781 whole entry): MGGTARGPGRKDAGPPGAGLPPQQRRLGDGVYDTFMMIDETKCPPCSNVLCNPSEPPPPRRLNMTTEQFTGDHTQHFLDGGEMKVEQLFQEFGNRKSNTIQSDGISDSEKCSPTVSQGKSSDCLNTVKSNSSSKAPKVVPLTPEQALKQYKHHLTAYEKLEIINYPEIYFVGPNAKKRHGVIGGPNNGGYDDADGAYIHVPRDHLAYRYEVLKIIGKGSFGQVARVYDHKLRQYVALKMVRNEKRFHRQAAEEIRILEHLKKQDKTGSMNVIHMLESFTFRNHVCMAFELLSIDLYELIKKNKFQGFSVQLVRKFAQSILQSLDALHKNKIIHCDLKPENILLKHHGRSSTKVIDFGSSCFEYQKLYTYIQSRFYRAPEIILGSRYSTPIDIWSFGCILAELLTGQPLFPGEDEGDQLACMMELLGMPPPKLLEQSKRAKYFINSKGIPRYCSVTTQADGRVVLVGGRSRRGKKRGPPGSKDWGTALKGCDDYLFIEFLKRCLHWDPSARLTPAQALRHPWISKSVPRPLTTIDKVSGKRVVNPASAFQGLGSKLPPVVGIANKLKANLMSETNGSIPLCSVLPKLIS
Chain of INSR (P06213 28-1382): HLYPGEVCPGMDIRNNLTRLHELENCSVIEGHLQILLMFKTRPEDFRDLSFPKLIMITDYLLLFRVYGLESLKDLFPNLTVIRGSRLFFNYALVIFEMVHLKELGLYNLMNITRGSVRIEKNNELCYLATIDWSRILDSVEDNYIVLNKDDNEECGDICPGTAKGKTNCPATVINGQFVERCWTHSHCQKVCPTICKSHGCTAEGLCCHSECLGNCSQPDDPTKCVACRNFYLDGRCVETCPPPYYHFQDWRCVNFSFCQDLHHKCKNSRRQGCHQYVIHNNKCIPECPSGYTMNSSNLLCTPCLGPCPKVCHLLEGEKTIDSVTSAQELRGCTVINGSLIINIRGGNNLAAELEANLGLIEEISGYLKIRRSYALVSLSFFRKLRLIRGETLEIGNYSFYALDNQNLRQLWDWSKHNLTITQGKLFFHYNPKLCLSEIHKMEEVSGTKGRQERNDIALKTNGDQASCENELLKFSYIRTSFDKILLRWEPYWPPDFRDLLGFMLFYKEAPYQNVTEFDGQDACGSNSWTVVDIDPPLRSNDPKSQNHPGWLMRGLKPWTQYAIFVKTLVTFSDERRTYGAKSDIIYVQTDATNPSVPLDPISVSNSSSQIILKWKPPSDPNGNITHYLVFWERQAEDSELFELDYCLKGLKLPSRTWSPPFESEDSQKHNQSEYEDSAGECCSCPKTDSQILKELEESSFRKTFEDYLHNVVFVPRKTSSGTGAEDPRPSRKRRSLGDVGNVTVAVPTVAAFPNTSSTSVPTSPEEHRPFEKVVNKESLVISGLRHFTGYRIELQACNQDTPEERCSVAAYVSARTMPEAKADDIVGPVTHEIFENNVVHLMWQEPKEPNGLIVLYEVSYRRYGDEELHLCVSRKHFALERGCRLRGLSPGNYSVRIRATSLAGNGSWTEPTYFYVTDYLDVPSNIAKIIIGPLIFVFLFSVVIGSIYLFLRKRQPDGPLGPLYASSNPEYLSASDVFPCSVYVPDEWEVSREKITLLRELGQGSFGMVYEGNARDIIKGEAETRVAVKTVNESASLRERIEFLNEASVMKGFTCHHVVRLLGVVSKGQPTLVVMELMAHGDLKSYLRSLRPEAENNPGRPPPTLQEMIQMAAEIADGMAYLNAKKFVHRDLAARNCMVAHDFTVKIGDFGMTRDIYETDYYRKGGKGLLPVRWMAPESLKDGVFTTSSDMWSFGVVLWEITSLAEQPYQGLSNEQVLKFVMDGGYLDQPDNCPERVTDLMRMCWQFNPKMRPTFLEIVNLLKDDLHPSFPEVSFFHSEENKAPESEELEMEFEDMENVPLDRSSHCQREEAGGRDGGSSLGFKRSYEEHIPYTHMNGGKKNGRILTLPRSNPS

Q: What does the source list for `COc1cc(N2CCC(N3CCN(C)CC3)CC2)ccc1Nc1ncc(Cl)c(Nc2ccccc2P(C)(C)=O)n1` [Brigatinib, reference compound]?
A: IC50 (INSR): 626 ± 304 nM; IC50 (DYRK3): > 10 µM; IC50 (CaMK2 alpha): 319 ± 13 nM; IC50 (SRC): 950 ± 309 nM; IC50 (EPHA2): > 10 µM; IC50 (CHK1): 70 ± 32 nM; IC50 (MAP4K4): 1680 ± 762 nM; IC50 (TNIK): 2370 ± 1330 nM; IC50 (GSK3 beta): > 10 µM; IC50 [1]: 14 nM; IC50 [2]: 6 nM; IC50 (LCK): 444 ± 84 nM; Tumor volume Mean ([3]; day 0 after administration): 174 mm³; Tumor volume, individual animals ([3]; day 0 after administration): 116 and 221 and 152 and 134 and 154 and 194 and 207 and 229; Tumor volume Mean ([3]; day 3 after administration): 252 mm³; Tumor volume, individual animals ([3]; day 3 after administration): 235 and 195 and 320 and 239 and 193 and 260 and 247 and 262 and 319; Tumor volume Mean ([3]; day 6 after administration): 352 mm³; Tumor volume, individual animals ([3]; day 6 after administration): 344 and 246 and 444 and 301 and 248 and 364 and 372 and 370 and 474; Tumor volume Mean ([3]; day 9 after administration): 461 mm³; Tumor volume, individual animals ([3]; day 9 after administration): 473 and 337 and 548 and 418 and 289 and 518 and 482 and 535 and 555; Tumor volume Mean ([3]; day 13 after administration): 502 mm³; Tumor volume, individual animals ([3]; day 13 after administration): 454 and 241 and 654 and 480 and 315 and 575 and 637 and 495 and 666; Tumor volume Mean ([3]; day 16 after administration): 547 mm³; Tumor volume, individual animals ([3]; day 16 after administration): 521 and 320 and 707 and 541 and 350 and 627 and 656 and 464 and 737; Tumor volume Mean ([3]; day 20 after administration): 612 mm³; Tumor volume, individual animals ([3]; day 20 after administration): 710 and 414 and 729 and 637 and 412 and 711 and 707 and 501 and 687; IC50 [4]: 479 ± 110 nM; IC50 [5]: 9 nM; IC50 [6]: 469 nM; IC50 [7]: 425 nM; IC50 (Ba/F3 cells): 2120 ± 23 nM; IC50 [8]: 6.49 nM; IC50 (KDR): 178 ± 52 nM; IC50 (PKA): > 10 µM; IC50 (TAOK2): 964 ± 48 nM; IC50 (MST4): 1080 ± 502 nM; IC50 (JAK2): 680 ± 47 nM; IC50 (JNK1): 1520 ± 733 nM; IC50 (c-MET): 1830 ± 231 nM
